Active and inactive are the calls of the source. The calls are words filed in the database; no cut-off is given here.
Experiments:
[1] = target: Dihydropyrimidinase-related protein 2 (Homo sapiens) (UniProt Q16555); assay: Binding affinity to dihydropyrimidinase-related protein 2 isoform 1 in human A549 cells by LC-MS/MS analysis; format: cell-based
[2] = Antitumor activity against […] cells xenografted in KM mouse assessed as liver weight at 80 mg/kg, ig administered every day for 10 days measured post last dose (reference value: 1.57 +/- 0.3 g); format: functional; details: time 10 day
[3] = Toxicity in […] lung cancer cells xenografted BALB/c mouse assessed as survival rate at 80 mg/kg, ig administered every day for 10 days (reference value: 100%); format: organism-based; details: in vivo, po, time 10 day
[4] = Antitumor activity against […] cells xenografted in KM mouse assessed as liver weight at 240 mg/kg, ig administered every day for 10 days measured post last dose (reference value: 1.57 +/- 0.3 g); format: functional; details: time 10 day
[5] = Toxicity in […] cells xenografted KM mouse assessed as survival rate at 27 mg/kg, ig administered every day for 10 days relative to control; format: organism-based; details: in vivo, po, time 10 day
[6] = Antitumor activity against […] cancer cells xenografted in BALB/c mouse assessed as tumor growth inhibition at 80 mg/kg, ig administered every day for 10 days relative to control; format: functional; details: Lewis lung carcinoma, po, 240 h, time 10 day, read-out: TGI
[7] = Toxicity in […] cells xenografted KM mouse assessed as net weight at 80 mg/kg, ig administered every day for 10 days (reference value: 9.45 +/- 4 g); format: organism-based; details: in vivo, po, 240 h, time 10 day
[8] = Antitumor activity against […] cancer cells xenografted in BALB/c mouse assessed as tumor growth inhibition at 27 mg/kg, ig administered every day for 10 days relative to control; format: functional; details: Lewis lung carcinoma, po, 240 h, time 10 day, read-out: TGI
[9] = Antitumor activity against […] cells xenografted in KM mouse assessed as tumor weight at 240 mg/kg, ig administered every day for 10 days (reference value: 0.55 +/- 0.57 g); format: functional; details: time 10 day
[10] = Antitumor activity against […] cancer cells xenografted in BALB/c mouse assessed as lung weight at 240 mg/kg, ig administered every day for 10 days measured post last dose (reference value: 0.13 +/- 0.03 g); format: functional, Lewis lung carcinoma; details: time 10 day
[11] = Toxicity in […] cells xenografted KM mouse assessed as net weight at 27 mg/kg, ig administered every day for 10 days (reference value: 9.45 +/- 4 g); format: organism-based; details: in vivo, po, 240 h, time 10 day
[12] = Antitumor activity against […] cancer cells xenografted in BALB/c mouse assessed as tumor growth inhibition at 240 mg/kg, ig administered every day for 10 days relative to control; format: functional; details: Lewis lung carcinoma, po, 240 h, time 10 day, read-out: TGI
[13] = target: Heat shock cognate 71 kDa protein (Homo sapiens) (UniProt P11142); assay: Binding affinity to heat shock cognate 71 kDa protein isoform 1 in human A549 cells by LC-MS/MS analysis; format: cell-based
Chain of Heat shock cognate 71 kDa protein (Homo sapiens) (P11142 2-646 limits assumed): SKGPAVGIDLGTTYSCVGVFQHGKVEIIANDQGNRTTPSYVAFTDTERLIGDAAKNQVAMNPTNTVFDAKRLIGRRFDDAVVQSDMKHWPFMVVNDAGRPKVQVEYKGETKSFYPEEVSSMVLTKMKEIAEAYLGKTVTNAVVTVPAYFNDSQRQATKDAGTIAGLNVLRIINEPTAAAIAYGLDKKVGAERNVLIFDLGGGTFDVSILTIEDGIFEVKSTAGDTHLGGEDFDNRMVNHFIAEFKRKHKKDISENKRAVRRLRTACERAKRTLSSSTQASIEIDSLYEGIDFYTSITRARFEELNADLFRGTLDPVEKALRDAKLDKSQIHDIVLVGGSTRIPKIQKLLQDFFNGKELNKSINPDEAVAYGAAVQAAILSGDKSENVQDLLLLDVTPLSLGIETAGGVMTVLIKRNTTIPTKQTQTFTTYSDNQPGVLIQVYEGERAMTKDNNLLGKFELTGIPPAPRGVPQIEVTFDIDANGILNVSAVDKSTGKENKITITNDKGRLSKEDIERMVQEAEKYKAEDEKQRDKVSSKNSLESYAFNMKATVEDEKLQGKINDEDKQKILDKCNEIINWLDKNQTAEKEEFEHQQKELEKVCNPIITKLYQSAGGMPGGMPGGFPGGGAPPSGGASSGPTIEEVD

[14] = test system: HepG2; assay: Antiproliferative activity against human HepG2 cells assessed as inhibition of cell growth at 12.5 ug/ml measured after 48 hrs by real-time cell analysis relative to control; format: functional; details: read-out: GI
[15] = Toxicity in […] lung cancer cells xenografted BALB/c mouse assessed as net weight at 27 mg/kg, ig administered every day for 10 days (reference value: 1.16 +/- 1.55 g); format: organism-based; details: in vivo, po, 240 h, time 10 day
[16] = target: T1, Delta(3,5)-Delta(2,4)-dienoyl-CoA isomerase, mitochondrial (Homo sapiens) (UniProt Q13011); assay: Binding affinity to delta(3,5)-delta(2,4)-dienoyl-CoA isomerase, mitochondrial in human A549 cells by LC-MS/MS analysis; format: cell-based
T1 sequence (whole entry): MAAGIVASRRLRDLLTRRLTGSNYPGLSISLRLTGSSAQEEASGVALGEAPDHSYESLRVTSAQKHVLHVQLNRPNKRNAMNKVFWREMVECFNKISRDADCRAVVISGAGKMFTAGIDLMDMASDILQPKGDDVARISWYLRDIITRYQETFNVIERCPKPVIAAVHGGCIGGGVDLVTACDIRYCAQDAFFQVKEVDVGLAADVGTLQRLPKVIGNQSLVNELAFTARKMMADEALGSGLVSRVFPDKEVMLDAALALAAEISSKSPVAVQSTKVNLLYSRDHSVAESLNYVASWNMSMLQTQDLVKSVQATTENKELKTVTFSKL

[17] = Toxicity in […] lung cancer cells xenografted BALB/c mouse assessed as net weight at 240 mg/kg, ig administered every day for 10 days (reference value: 1.16 +/- 1.55 g); format: organism-based; details: in vivo, po, 240 h, time 10 day
[18] = Toxicity in […] cells xenografted KM mouse assessed as net weight at 240 mg/kg, ig administered every day for 10 days (reference value: 9.45 +/- 4 g); format: organism-based; details: in vivo, po, 240 h, time 10 day
[19] = Antitumor activity against […] cells xenografted in KM mouse assessed as tumor growth inhibition at 240 mg/kg, ig administered every day for 10 days relative to control; format: functional; details: H22, po, 240 h, time 10 day, read-out: TGI
[20] = Antitumor activity against […] cells xenografted in KM mouse assessed as tumor weight at 27 mg/kg, ig administered every day for 10 days (reference value: 0.55 +/- 0.57 g); format: functional; details: time 10 day
[21] = target: Endoplasmic reticulum chaperone BiP (Homo sapiens) (UniProt P11021); assay: Binding affinity to 78 kDa glucose-regulated protein in human A549 cells by LC-MS/MS analysis; format: cell-based
Chain of Endoplasmic reticulum chaperone BiP (Homo sapiens) (P11021 whole entry): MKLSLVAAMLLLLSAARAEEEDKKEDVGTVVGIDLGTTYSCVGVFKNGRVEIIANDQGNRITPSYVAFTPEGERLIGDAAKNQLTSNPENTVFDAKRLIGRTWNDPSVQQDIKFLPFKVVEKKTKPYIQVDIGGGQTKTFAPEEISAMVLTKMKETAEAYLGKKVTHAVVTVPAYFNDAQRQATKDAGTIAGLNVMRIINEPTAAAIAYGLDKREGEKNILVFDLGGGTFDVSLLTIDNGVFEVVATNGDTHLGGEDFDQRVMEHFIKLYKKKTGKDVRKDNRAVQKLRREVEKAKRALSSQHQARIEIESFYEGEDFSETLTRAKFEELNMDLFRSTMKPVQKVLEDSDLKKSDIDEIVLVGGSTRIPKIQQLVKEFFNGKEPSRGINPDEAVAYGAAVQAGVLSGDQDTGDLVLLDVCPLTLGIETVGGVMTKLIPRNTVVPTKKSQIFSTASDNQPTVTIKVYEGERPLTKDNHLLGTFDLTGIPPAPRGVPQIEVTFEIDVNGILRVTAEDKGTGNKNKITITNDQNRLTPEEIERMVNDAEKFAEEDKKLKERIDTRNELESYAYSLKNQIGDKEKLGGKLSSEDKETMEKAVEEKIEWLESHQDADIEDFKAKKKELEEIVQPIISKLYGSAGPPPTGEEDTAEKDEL

[22] = Toxicity in […] cells xenografted KM mouse assessed as survival rate at 240 mg/kg, ig administered every day for 10 days relative to control; format: organism-based; details: in vivo, po, time 10 day
[23] = target: Tropomyosin alpha-4 chain (Homo sapiens) (UniProt P67936); assay: Binding affinity to tropomyosin alpha-4 chain isoform 1 in human A549 cells by LC-MS/MS analysis; format: cell-based
Chain of Tropomyosin alpha-4 chain (Homo sapiens) (P67936 whole entry, canonical isoform): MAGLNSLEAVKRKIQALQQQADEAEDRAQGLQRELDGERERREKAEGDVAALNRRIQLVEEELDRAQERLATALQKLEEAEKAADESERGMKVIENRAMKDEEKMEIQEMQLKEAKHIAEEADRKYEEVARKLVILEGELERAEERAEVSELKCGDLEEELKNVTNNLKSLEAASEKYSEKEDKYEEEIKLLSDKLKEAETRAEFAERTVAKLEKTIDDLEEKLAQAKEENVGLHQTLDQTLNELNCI

[24] = Toxicity in […] cells xenografted KM mouse assessed as survival rate at 80 mg/kg, ig administered every day for 10 days relative to control; format: organism-based; details: in vivo, po, time 10 day
[25] = test system: A549; assay: Antiproliferative activity against human A549 cells assessed as inhibition of cell growth at 12.5 ug/ml measured after 48 hrs by real-time cell analysis relative to control; format: functional; details: read-out: GI
[26] = Antitumor activity against […] cells xenografted in KM mouse assessed as tumor growth inhibition at 80 mg/kg, ig administered every day for 10 days relative to control; format: functional; details: H22, po, 240 h, time 10 day, read-out: TGI
[27] = Antitumor activity against […] cancer cells xenografted in BALB/c mouse assessed as tumor weight at 27 mg/kg, ig administered every day for 10 days (reference value: 1.68 +/- 0.78 g); format: functional, Lewis lung carcinoma; details: time 10 day
[28] = Antitumor activity against […] cancer cells xenografted in BALB/c mouse assessed as tumor weight at 240 mg/kg, ig administered every day for 10 days (reference value: 1.68 +/- 0.78 g); format: functional, Lewis lung carcinoma; details: time 10 day
[29] = Antitumor activity against […] cells xenografted in KM mouse assessed as tumor growth inhibition at 27 mg/kg, ig administered every day for 10 days relative to control; format: functional; details: H22, po, 240 h, time 10 day, read-out: TGI
[30] = Toxicity in […] lung cancer cells xenografted BALB/c mouse assessed as survival rate at 27 mg/kg, ig administered every day for 10 days (reference value: 100%); format: organism-based; details: in vivo, po, time 10 day

CC(C)[C@@H](C)/C=C/[C@@H](C)[C@H]1CC[C@H]2C3=CC=C4C[C@@H](O)CC[C@]4(C)[C@H]3CC[C@]12C [ERGOSTEROL]
Activity [1]: Active
Activity [2]: 1.87 g
survival at 240 h [3]: 100%
Activity [4]: 1.57 g
survival at 240 h [5]: 100%
inhibition in vivo at 80 mg/kg [6]: 28.4%
Activity [7]: 7.78 g
inhibition in vivo at 27 mg/kg [8]: 15.8%
Activity [9]: 0.19 g
Activity [10]: 0.13 g
Activity [11]: 6.92 g
inhibition in vivo at 240 mg/kg [12]: 44.6%
Activity [13]: Active
inhibition of growth at 12.5 µg/mL [14]: 100%
Activity [15]: -0.36 g
Activity [16]: Active
Activity [17]: -0.61 g
Activity [18]: 5.7 g
inhibition in vivo at 240 mg/kg [19]: 64.4%
Activity [20]: 0.42 g
Activity [21]: Active
survival at 240 h [22]: 100%
Activity [23]: Active
survival at 240 h [24]: 100%
inhibition of growth at 12.5 µg/mL [25]: 100%
inhibition in vivo at 80 mg/kg [26]: 41.1%
Activity [27]: 1.42 g
Activity [28]: 0.93 g
inhibition in vivo at 27 mg/kg [29]: 23.4%
survival at 240 h [30]: 100%
